Reference: patent US20090253622A1, “USE OF TLR3 AGONISTS FOR THE TREATMENT OF NEURODEGENERATIVE DISORDERS” (Nederlandse Organisatie voor toegepast - …, priority 2006, published 2009)
One block for each molecule: values may come before it.

Assays:
TLR3 [1] = experiment: TLR expression in cultured adult human astrocytes by real-time PCR; format: cell-based
Method: Adult human astrocytes from post-mortem subcortical white matter samples were isolated and cultured as previously described (Bsibsi et al., J Neuropath Exp Neurol 61:1013-1021 [2002]). As determined by specific staining for cellular markers for astrocytes (glial fibrillary acidic protein; GFAP) and microglia (CD68) astrocyte cultures were essentially homogeneous; as a rule all cells expressed GFAP and none of them expressed CD68. When indicated astrocytes were stimulated with 50 μg/mL poly I:C (Amersham Pharmacia Biotech, Piscataway, N.J.) or 200 ng/mL LPS (Sigma-Aldrich, Steinheim, Germany) to activate TLR3 and TLR4, respectively. These doses were selected on the basis of maximum effects in astrocytes. It should be noted that contaminants in the commercial LPS preparation could possibly lead to some level of TLR2 activation in addition to TLR4 by the LPS preparation used but not of TLR3. When stimulated with cytokines, astrocytes were supplied with TNF-α, IFN-γ, IL-1β (each at 500 U/mL), IL-4 (at 250 U/mL), IL-6 (at 200 U/mL), IL-12 (at 50 ng/mL), IL-10 (at 20 ng/mL) and TGF-β (at 12.5 ng/mL) (PeproTech, Rocky Hill, N.Y.). Control cDNA array profiling experiments included treatment with 50 μg/mL cycloheximide for 30 min prior to and during poly I:C treatment, or with 200 U/mL IFNβ (Avonex). Endothelial cells (UVEC) were isolated from umbillical cords and cultured on gelatin-coated dishes in M199 supplemented with 20 nM HEPES, 10% human serum, 10% heat-inactivated NBCS, 150 mg/mL ECGF, 5 U/mL heparin, 100 IU/mL penicillin and […] streptomycin. Total cellular RNA was isolated using RNA-Bee™ as previously described (Bsibsi et al., [2002] supra). Subsequently, RNA was reverse transcribed into cDNA and levels of TLR1-10 and β-actin as a reference were determined by quantitative real-time PCR. The following fluorogenic molecular beacons and primers (Biolegio, Nijmegen, The Netherlands) were used: The β-actin beacon contained 5′ fluorescein VIC, and the 3′ quencher Dabcyl. […] Data were analyzed using sequence detector version 1.7 software.

[2] = test system: astrocytes from TLR3-deficient mice; experiment: IL-6 release by astrocytes from TLR3-deficient mice (ELISA); format: cell-based; details: TLR3-deficient mouse astrocytes, 48 h
Method: (§1) Astrocytes were cultured in poly L-lysine coated 96 well-flat-bottom plates at 1×10^4 cells per well in 100 l DMEM/HAM-F10 medium containing 10% FCS and antibiotic supplements for 24 h to obtain post-confluent cultures. Recombinant human stathmin was next added to astrocytes, and parallel control stimuli were performed with either poly I:C, an established TLR3 agonist, or ultrapure lipopolysaccharides, established TLR4 agonists. After addition of these stimuli astrocytes were incubated for another 48 h. Astrocyte culture supernatants were subsequently collected and using a commercial ELISA kit levels of IL-6 were determined, as a marker for TLR-mediated activation of murine astrocytes.

[3] = test system: experimental autoimmune encephalomyelitis; details: mice treated 5, 7 and 9 days after induction of the disease; cited from earlier work
human adult astrocytes = experiment: cDNA array profiling of cytokine, chemokine and growth factor genes in human adult astrocytes; format: cell-based
Method: Adult human astrocytes from post-mortem subcortical white matter samples were isolated and cultured as previously described (Bsibsi et al., J Neuropath Exp Neurol 61:1013-1021 [2002]). […] When indicated astrocytes were stimulated with 50 μg/mL poly I:C (Amersham Pharmacia Biotech, Piscataway, N.J.) or 200 ng/mL LPS (Sigma-Aldrich, Steinheim, Germany) to activate TLR3 and TLR4, respectively. […] It should be noted that contaminants in the commercial LPS preparation could possibly lead to some level of TLR2 activation in addition to TLR4 by the LPS preparation used but not of TLR3. When stimulated with cytokines, astrocytes were supplied with TNF-α, IFN-γ, IL-1β (each at 500 U/mL), IL-4 (at 250 U/mL), IL-6 (at 200 U/mL), IL-12 (at 50 ng/mL), IL-10 (at 20 ng/mL) and TGF-β (at 12.5 ng/mL) (PeproTech, Rocky Hill, N.Y.). […] Endothelial cells (UVEC) were isolated from umbillical cords and cultured on gelatin-coated dishes in M199 supplemented with 20 nM HEPES, 10% human serum, 10% heat-inactivated NBCS, 150 mg/mL ECGF, 5 U/mL heparin, 100 IU/mL penicillin and […] streptomycin.
Analysis of the mRNA profile of astrocytes was performed by hybrid selection of ^32P-labeled cDNA on Clontech human cytokine/chemokine Atlas® arrays as previous described (Meeuwsen et al., Glia 43:243-253 [2003]). Hybridization signals for each of the 268 cytokine, chemokine and growth factor (receptor) genes were calculated as the mean of duplicate measurements, corrected for background intensity and quantified using software provided by the manufacturer. Relative expression was calculated by dividing these hybridization signals by the mean signal for all nine housekeeping reference genes on the corresponding array.
Gene profiling was performed using astrocytes from four different control donors.
Astrocytes were isolated from post mortem human brain tissue samples and cultured under conditions as described elsewhere in this application. One part of the culture was stimulated with 50 μg/ml stathmin, the second with 50 μg/ml poly I:C and a third was left untreated to served as a reference control. Following another 48 h RNA was isolated from each culture and ^32P-labeled cDNA was prepared by reverse transcription. Subsequent hybrid selection of these ^32P-labeled cDNA samples was performed on Clontech Atlas® arrays containing selective probes for 268 cytokines, chemokines and growth factors, and various receptors for these mediators. All hybridization signals were calculated as the mean of duplicate measurements, corrected for background intensity and quantified using software provided by the manufacturer. Relative signal strength was next calculated by dividing these averaged hybridization signals by the mean signal for all nine housekeeping reference genes that were also present on each array as a reference.

[4] = test system: neurons in organotypic human brain slice cultures; experiment: Neuronal survival in organotypic human brain slice cultures (calcein-AM / ethidium homodimer-1); format: cell-based; details: slices cultured 1 week; p<0.03
Method: Organotypic human brain slice cultures were set up and analyzed as previously described (Verwer et al., FASEB J. 16:54-60 [2002]). Briefly, tissue blocks were collected from different post-mortem cortical samples and 200-μm slices were produced. These slices were cultured for 1 week in Poly I:C- or LPS-conditioned astrocyte media that were obtained upon culturing astrocytes in the presence of either 50 μg/mL poly I:C or 200 ng/mL LPS. As a control untreated astrocyte-conditioned media from the same donor was used. All astrocyte-conditioned media were harvested after 48 h and stored at −20° C. Viability of neurons in the slice cultures was evaluated using calcein-AM and ethidium homodimer-1 (molecular Probes, Eugene, Oreg.). A Zeiss 410 Invert confocal laser scanning microscope was used to inspect the slices and quantify staining.

TLR3 [5] = experiment: CXCL8 release by cultured human astrocytes (ELISA); format: cell-based
Method: Cos-7 cells (25,000 cells per well in 96-well plates) were transfected for 5 h with 768 pools of cDNA derived from human brain tumours (5 pooled tumours including meningioma, oligodendroglioma, astrocytoma grades II and IV, and medulloblastoma; NCI CGAP Brn35; Invitrogen) using lipofectamine, after which cells were thoroughly washed. Transfection with green-fluorescent protein-encoding cDNA was used as an internal control for transfection efficiencies. After continued culture of the transfected cells for 48 h, 75 μL of each culture supernatant was harvested and added to cultured human astrocytes seeded at 1,000 cells per well in 75 μL. After 48 h of culture, supernatants were harvested and evaluated for CXCL8 release using ELISA. Stimulation of astrocytes with poly I:C served as positive controls for CXCL8 release in all cases, non-transfected Cos 7 culture supernatants as negative controls.
(§2) Purified recombinant stathmin was exposed to two different conditions that differentially affect the extent of helix formation within the protein chain. One part of the protein preparation was exposed to 5% trifluoroacetic acid (TFA) in water for 1 h at 37° C., strongly acidic conditions that tend to disrupt an alpha helix. In parallel, another part was exposed for 1 h at 37° C. to 5% of the helix-promoting solvent trifluoroethanol (TFE) in phosphate-buffered saline (PBS). After exposure to these different conditions, both protein samples were extensively dialysed for 48 h against several changes of PBS. Next, the samples were analyzed by […] circular dichroism spectroscopy that allows calculation of helical content on the basis of elipticity in the absorption of circularly polarized light. In both cases, another part of the dialyzed sample was tested in parallel for induction of TLR3-mediated release of CXCL8 (IL-8) in human astrocytes as described elsewhere in this application.

TLR3 [6] = experiment: IL-6 release by astrocytes from wild-type mice (ELISA); format: cell-based; details: wild-type mouse astrocytes, 48 h
Method: as §1

[7] = target: human Toll-like receptor 3 (human) (UniProt O15455); experiment: cell-based or functional assay
[8] = Circular dichroism spectroscopy, helical content; format: physicochemical; details: pre-treated 1 h at 37° C., dialysed 48 h against PBS
Method: as §2, with “[…] […]” for “In parallel, another part was exposed for 1 h at 37° C. to 5% of the helix-promoting solvent trifluoroethanol (TFE) in phosphate-buffered saline (PBS). After exposure to these different conditions, both protein samples were extensively dialysed for 48 h against several changes of PBS.”

[9] = agonist-treated vs untreated astrocytes, 48 h

Molecule: OO [H2O2]
induction of TLR3 expression (in words) (TLR3 [1]): selective induction of TLR3

ERBB4 receptor protein-tyrosine kinase, ratio of expression (human adult astrocytes; [9]): 0.43 | VEGF receptor 2, ratio of expression (human adult astrocytes; [9]): 0.22
Molecule: poly I:C
IL-6 release [2]: fully abrogated | disease development in EAE [3]: almost completely blocks subsequent disease development | change in expression of genes encoding immune mediators and growth factors (human adult astrocytes; 50 μg/ml, 48 h): comprehensive and marked change in expression | Jag1, downregulation factor (human adult astrocytes; 48 h): 1.96 | p40 subunit of IL-12 and IL-23, down-regulation factor (human adult astrocytes; 48 h): ~2 | Smo, ratio of expression (human adult astrocytes; [9]): 0.48 | induction of chemokines CXCL8, CXCL2 and CCL3 (human adult astrocytes; astrocytes): strongly induced | induction of IL-9 (human adult astrocytes; astrocytes, 48 h): 7.5 fold | induction of IL-10 (human adult astrocytes; astrocytes, 48 h): 2.3 fold | induction of IL-11 (human adult astrocytes; astrocytes, 48 h): 3.2 fold | induction of TNF-α (human adult astrocytes; astrocytes, 48 h): induced | induction of tumour necrosis factor-stimulated gene 6 (TSG-6) (human adult astrocytes; astrocytes, 48 h): over 10 fold | induction of CCL4, CXCL6, CCL5, CXCL9 and CCL2 (human adult astrocytes; astrocytes, to a lesser extent): leads to induction | survival of neurons [4]: promoted neuronal survival equally well | release levels of CXCL8 (TLR3 [5]; human adult astrocyte cultures): around 200 ng/mL | IL-6 release (TLR3 [6]): marked IL-6 release

Pearson correlation coefficient (r) between gene expression profiles (268 genes) of human astrocytes stimulated with 50 µg/ml stathmin or 50 µg/ml poly I:C [7]: 0.951 | TLR3-mediated release of CXCL8 (IL-8) in human astrocytes: TFE-treated stathmin (37% alpha helix) against TFA-treated stathmin (12% alpha helix) [7]: 3 fold
Molecule: recombinant human stathmin (from UniProt P16949 1-149) (ligand)

Molecule: TGF-β: anti-inflammatory cytokine, 12.5 ng/mL
induction of TLR3 expression (in words) (TLR3 [1]): No induction of TLR3

B1: IL-10: anti-inflammatory cytokine, 20 ng/mL (protein, UniProt P22301 19-178, looked up)
Interleukin-10: SPGQGTQSENSCTHFPGNLPNMLRDLRDAFSRVKTFFQMKDQLDNLLLKESLLEDFKGYLGCQALSEMIQFYLEEVMPQAENQDPDIKAHVNSLGENLKTLRLRLRRCHRFLPCENKSKAVEQVKNAFNKLQEKGIYKAMSEFDIFINYIEAYMTMKIRN
induction of TLR3 expression (in words) (TLR3 [1]): No induction of TLR3

B2: TFA-treated sample: purified recombinant stathmin exposed to 5% TFA in water for 1 h at 37° C. and dialysed against PBS (protein, UniProt P16949 2-149, looked up)
Stathmin: ASSDIQVKELEKRASGQAFELILSPRSKESVPEFPLSPPKKKDLSLEEIQKKLEAAEERRKSHEAEVLKQLAEKREHEKEVLQKAIEENNNFSKMAEEKLTHKMEANKENREAQMAAKLERLREKDKHIEEVRKNKESKDPADETEAD
modifications: TFA-treated
notes: purified recombinant stathmin exposed to 5% TFA in water for 1 h at 37° C. and dialysed against PBS
alpha helical content [8]: 12%

B3: TFE-treated sample: purified recombinant stathmin exposed to 5% TFE in PBS for 1 h at 37° C. and dialysed against PBS (protein, UniProt P16949 2-149, looked up)
Stathmin: B2 Stathmin
modifications: TFE-treated
notes: purified recombinant stathmin exposed to 5% TFE in PBS for 1 h at 37° C. and dialysed against PBS
alpha helical content [8]: 37% | activity in activating astrocytes (CXCL8/IL-8 release), TFE-treated relative to TFA-treated sample (TLR3 [5]; on weight basis): about 3 fold
